Measurements reported in ChEMBL document CHEMBL4699611, “Synthesis and evaluation of HIF-1α inhibitory activities of novel panaxadiol derivatives” (Bioorg Med Chem Lett, 2020).
pIC50: −log10 of the molar value.

What was measured:
Assay type in all cases: cell-based
[1] = molecular target: Hypoxia-inducible factor 1-alpha (Homo sapiens, UniProt Q16665); experiment: Inhibition of hypoxia-induced HIF1alpha transcriptional activity in human Hep3B cells co-transfected with luciferase reporter plasmid containing six copies of HREs and pRL-CMV vector assessed as reduction in luciferase activity incubated for 24 hrs under hypoxic condition by HRE-dependent dual luciferase reporter gene assay
Hep 3B2 [2] = experiment: Cytotoxicity against human Hep3B cells assessed as reduction in cell viability incubated for 24 hrs under normaxic condition by MTT assay
Hep 3B2 [3] = experiment: Cytotoxicity against human Hep3B cells assessed as reduction in cell viability at 30 uM incubated for 24 hrs in presence of 20% O2 by MTT assay; conditions: hep 3b2, 24 h

| SMILES | pIC50 [1] | pIC50 (Hep 3B2 [2]) | inhibition [1] | Activity (Hep 3B2 [3]) |
| --- | --- | --- | --- | --- |
| Cc1ccc(/C=C2\C[C@]3(C)[C@H]4C[C@@H](O)[C@@H]5[C@@H]([C@@]6(C)CCCC(C)(C)O6)CC[C@@]5(C)[C@]4(C)CC[C@H]3C(C)(C)\C2=N\NC(N)=O)cc1 | 5.01 | 5.39 |  |  |
| CC1(C)CCC[C@](C)([C@H]2CC[C@]3(C)[C@@H]2[C@H](O)C[C@@H]2[C@@]4(C)CC(=C\c5ccccc5F)/C(=N\NC(N)=O)C(C)(C)[C@@H]4CC[C@]23C)O1 | 5.23 | 5.25 |  |  |
| CC1(C)CCC[C@](C)([C@H]2CC[C@]3(C)[C@@H]2[C@H](O)C[C@@H]2[C@@]4(C)CC/C(=N\Nc5ccccc5Cl)C(C)(C)[C@@H]4CC[C@]23C)O1 | < 4.00 | < 4.00 |  |  |
| CC1(C)CCC[C@](C)([C@H]2CC[C@]3(C)[C@@H]2[C@H](O)C[C@@H]2[C@@]4(C)CC(=C\c5ccc(F)cc5)/C(=N\NC(N)=S)C(C)(C)[C@@H]4CC[C@]23C)O1 | 5.05 | 4.62 |  |  |
| COc1ccc(-c2nnnn2CC(=O)O[C@@H]2C[C@@H]3[C@@]4(C)CCC(=O)C(C)(C)[C@@H]4CC[C@@]3(C)[C@]3(C)CC[C@H]([C@@]4(C)CCCC(C)(C)O4)[C@@H]23)cc1 | < 4.00 | < 4.00 |  |  |
| Cc1cccc(N/N=C2\CC[C@]3(C)[C@H]4C[C@@H](O)[C@@H]5[C@@H]([C@@]6(C)CCCC(C)(C)O6)CC[C@@]5(C)[C@]4(C)CC[C@H]3C2(C)C)c1 | 4.25 | < 4.00 |  |  |
| CC1(C)CCC[C@](C)([C@H]2CC[C@]3(C)[C@@H]2[C@H](OC(=O)Cn2nnnc2-c2ccccc2)C[C@@H]2[C@@]4(C)CCC(=O)C(C)(C)[C@@H]4CC[C@]23C)O1 | < 4.00 | < 4.00 |  |  |
| Cc1ccc(/C=C2\C[C@]3(C)[C@H]4C[C@@H](O)[C@@H]5[C@@H]([C@@]6(C)CCCC(C)(C)O6)CC[C@@]5(C)[C@]4(C)CC[C@H]3C(C)(C)\C2=N\NC(=N)N)cc1 | 4.42 | 4.95 |  |  |
| CC1(C)CCC[C@](C)([C@H]2CC[C@]3(C)[C@@H]2[C@H](O)C[C@@H]2[C@@]4(C)CC/C(=N\Nc5ccc(F)cc5)C(C)(C)[C@@H]4CC[C@]23C)O1 | 4.67 | < 4.00 |  |  |
| CC1(C)CCC[C@](C)([C@H]2CC[C@]3(C)[C@@H]2[C@H](O)C[C@@H]2[C@@]4(C)CC(=C\c5ccc(Cl)cc5)/C(=N\NC(N)=O)C(C)(C)[C@@H]4CC[C@]23C)O1 | 5.26 | 4.95 |  |  |
| CC1(C)CCC[C@](C)([C@H]2CC[C@]3(C)[C@@H]2[C@H](O)C[C@@H]2[C@@]4(C)CC/C(=N\Nc5ccc(Cl)cc5)C(C)(C)[C@@H]4CC[C@]23C)O1 | 4.59 | < 4.00 |  |  |
| CC1(C)CCC[C@](C)([C@H]2CC[C@]3(C)[C@@H]2[C@H](O)C[C@@H]2[C@@]4(C)CC/C(=N\Nc5cccc(F)c5)C(C)(C)[C@@H]4CC[C@]23C)O1 | 4.17 | < 4.00 |  |  |
| CC1(C)CCC[C@](C)([C@H]2CC[C@]3(C)[C@@H]2[C@H](OC(=O)CNc2nnn[nH]2)C[C@@H]2[C@@]4(C)CCC(=O)C(C)(C)[C@@H]4CC[C@]23C)O1 | 4.44 | < 4.00 |  |  |
| Cc1ccccc1N/N=C1\CC[C@]2(C)[C@H]3C[C@@H](O)[C@@H]4[C@@H]([C@@]5(C)CCCC(C)(C)O5)CC[C@@]4(C)[C@]3(C)CC[C@H]2C1(C)C | 4.60 | < 4.00 |  |  |
| CC1(C)CCC[C@](C)([C@H]2CC[C@]3(C)[C@@H]2[C@H](O)C[C@@H]2[C@@]4(C)CC/C(=N\Nc5ccccc5F)C(C)(C)[C@@H]4CC[C@]23C)O1 | 5.00 | < 4.00 |  |  |
| CC1(C)CCC[C@](C)([C@H]2CC[C@]3(C)[C@@H]2[C@H](O)C[C@@H]2[C@@]4(C)CC(=C\c5ccc(O)cc5)/C(=N\NC(=N)N)C(C)(C)[C@@H]4CC[C@]23C)O1 | 5.21 | 5.20 |  |  |

| SMILES | pIC50 [1] | pIC50 (Hep 3B2 [2]) | inhibition [1] | Activity (Hep 3B2 [3]) |
| --- | --- | --- | --- | --- |
| Cc1ccc(N/N=C2\CC[C@]3(C)[C@H]4C[C@@H](O)[C@@H]5[C@@H]([C@@]6(C)CCCC(C)(C)O6)CC[C@@]5(C)[C@]4(C)CC[C@H]3C2(C)C)cc1 | 5.15 | < 4.00 |  |  |
| CC1(C)CCC[C@](C)([C@H]2CC[C@]3(C)[C@@H]2[C@H](O)C[C@@H]2[C@@]4(C)CC(=C\c5ccc(F)cc5)/C(=N\NC(N)=O)C(C)(C)[C@@H]4CC[C@]23C)O1 | 4.93 | < 4.00 |  |  |
| Cc1ccc(/C=C2\C[C@]3(C)[C@H]4C[C@@H](O)[C@@H]5[C@@H]([C@@]6(C)CCCC(C)(C)O6)CC[C@@]5(C)[C@]4(C)CC[C@H]3C(C)(C)\C2=N\NC(N)=S)cc1 | 5.21 | 4.37 |  |  |
| CC1(C)CCC[C@](C)([C@H]2CC[C@]3(C)[C@@H]2[C@H](O)C[C@@H]2[C@@]4(C)CC(=C\c5ccc(F)cc5)/C(=N\NC(=N)N)C(C)(C)[C@@H]4CC[C@]23C)O1 | 5.32 | < 4.00 |  |  |
| CC1(C)CCC[C@](C)([C@H]2CC[C@]3(C)[C@@H]2[C@H](O)C[C@@H]2[C@@]4(C)CC/C(=N\Nc5cccc(Cl)c5)C(C)(C)[C@@H]4CC[C@]23C)O1 | 4.44 | < 4.00 |  |  |
| CC1(C)CCC[C@](C)([C@H]2CC[C@]3(C)[C@@H]2[C@H](O)C[C@@H]2[C@@]4(C)CC(=C\c5cccc(F)c5)/C(=N\NC(N)=O)C(C)(C)[C@@H]4CC[C@]23C)O1 | 5.46 | 5.28 |  |  |
| CC1(C)CCC[C@](C)([C@H]2CC[C@]3(C)[C@@H]2[C@H](O)C[C@@H]2[C@@]4(C)CC[C@H](O)C(C)(C)[C@@H]4CC[C@]23C)O1 [PANAXADIOL] | 5.04 | 4.50 |  |  |
| CC1(C)CCC[C@](C)([C@H]2CC[C@]3(C)[C@@H]2[C@H](OC(=O)Cn2nnnc2-c2ccc4c(c2)OCO4)C[C@@H]2[C@@]4(C)CCC(=O)C(C)(C)[C@@H]4CC[C@]23C)O1 | 4.39 | < 4.00 |  |  |
| CC1(C)CCC[C@](C)([C@H]2CC[C@]3(C)[C@@H]2[C@H](O)C[C@@H]2[C@@]4(C)CC(=C\c5ccc(Cl)cc5)/C(=N\NC(N)=S)C(C)(C)[C@@H]4CC[C@]23C)O1 | < 4.00 | < 4.00 |  |  |
| COc1ccc(/C=C2\C[C@]3(C)[C@H]4C[C@@H](O)[C@@H]5[C@@H]([C@@]6(C)CCCC(C)(C)O6)CC[C@@]5(C)[C@]4(C)CC[C@H]3C(C)(C)\C2=N\NC(=N)N)cc1 | 5.24 | 5.21 |  |  |
| CC1(C)CCC[C@](C)([C@H]2CC[C@]3(C)[C@@H]2[C@H](O)C[C@@H]2[C@@]4(C)CC/C(=N\Nc5ccc(F)cc5F)C(C)(C)[C@@H]4CC[C@]23C)O1 | 4.89 | < 4.00 |  |  |
| CC1(C)CCC[C@](C)([C@H]2CC[C@]3(C)[C@@H]2[C@H](O)C[C@@H]2[C@@]4(C)CC/C(=N\Nc5ccc(Cl)cc5Cl)C(C)(C)[C@@H]4CC[C@]23C)O1 | 5.43 | < 4.00 | Dose-dependent effect | Non-Toxic |
| CC1(C)CCC[C@](C)([C@H]2CC[C@]3(C)[C@@H]2[C@H](O)C[C@@H]2[C@@]4(C)CC/C(=N\Nc5cccc([N+](=O)[O-])c5)C(C)(C)[C@@H]4CC[C@]23C)O1 | 4.21 | < 4.00 |  |  |
| CC1(C)CCC[C@](C)([C@H]2CC[C@]3(C)[C@@H]2[C@H](OC(=O)CNc2cccc(-c4nnn[nH]4)c2)C[C@@H]2[C@@]4(C)CCC(=O)C(C)(C)[C@@H]4CC[C@]23C)O1 | < 4.00 | < 4.00 |  |  |
| CC1(C)CCC[C@](C)([C@H]2CC[C@]3(C)[C@@H]2[C@H](OC(=O)Cn2nnnc2-c2ccc(Cl)cc2)C[C@@H]2[C@@]4(C)CCC(=O)C(C)(C)[C@@H]4CC[C@]23C)O1 | 4.91 | 4.37 |  |  |
